Test results as given in patent US11918575B2, “PZA and cytochrome Bc1 inhibitor combination treatment” (priority 2017, dated 2024).
Values after ≈ are worked out from the molar mass of the structure shown.

What was measured:
[1] = system: Mycobacterium tuberculosis H37Rv; assay: Mouse tuberculosis infection model, CFU counts in the lungs after treatment; type: in vivo; settings: female Swiss mice infected i.v. with H37Rv; oral once daily 5 times/week for 4 weeks (day 12-37); necropsy day 41; BDQ 3 mg/kg, Q203 or Cpd X 20 mg/kg, PZA 150 mg/kg; cut off 1.10 = below detectable level
[2] = type: physicochemical
Protocol: All formulations prepared in 20% HP-β-CD, and used for 5 treatments (one week).
All formulations were solutions and stored at 4° C. during the study.
Stability of BDQ and Q203 in formulation was previously tested, for PZA and Cpd X the stability was tested after one week and found acceptable for both compounds

M. tuberculosis H37Rv = settings: strain M. tuberculosis H37Rv, inside macrophages; cited from earlier work
M. tuberculosis = settings: cited from earlier work

SMILES	mean log10 (CFUs in the lungs) [1] [log10]	stability in formulation [2]	MIC50 (M. tuberculosis H37Rv) [nM]	activity against replicating and non-replicating bacteria (M. tuberculosis)
NC(=O)c1cnccn1 [PZA, Pyrazinamide]	3.47	acceptable	–	–
CCc1nc2ccc(Cl)cn2c1C(=O)NCc1ccc(N2CCC(c3ccc(OC(F)(F)F)cc3)CC2)cc1 [Q203]	4.55	–	0.28 (≈ 0.156 ng/mL)	highly active
CCc1nc2ccc(Cl)cn2c1C(=O)NCc1ccc(N2CC3(CCN(c4ccc(OC(F)(F)F)cc4)CC3)C2)cc1 [Cpd X]	4.75	acceptable	–	–
COc1nc2ccc(Br)cc2cc1[C@@H](c1ccccc1)[C@@](O)(CCN(C)C)c1cccc2ccccc12 [BDQ, Bedaquiline]	4.46	–	–	–
